Test results taken from article PMC8402547, “In Vitro and In Vivo Analysis of Ochratoxin A-Derived Glucuronides and Mercapturic Acids as Biomarkers of Exposure” (Toxins, 2021).

What was measured:
Assay type in all cases: in vivo, male F344/N rats
[1] = 90-day rat study: 24 h urinary excretion of OTA and OTA-glucuronides, LC–MS/MS with and without β-glucuronidase hydrolysis; conditions: for Urinary excretion, fraction of the administered dose / Urinary excretion: 5 days/week; for Urinary excretion, fraction of the administered dose: 24 h urine
Experimental: (§1) 90-day study: Male F344/N rats (6–7 weeks old) were purchased from Harlan-Winkelmann, Borchen, Germany. Animals were housed in groups of 5 in Macrolon type-4 cages and allowed free access to pelleted standard rat maintenance diet (SSNIFF, Soest, Germany) and tap water. After a week of acclimatization, rats (n = 5/dose) were exposed to OTA dissolved in corn oil by oral gavage at doses of 0, 21, 70 or 210 µg/kg bw for 2, 4 or 13 weeks (5 days per week). For urine collection, animals were transferred into metabolic cages (Tecniplast Metabolic Cage—Rats Over 300 g; Tecniplast, Italy) 48 h prior to necropsy and fasted for 20 h but allowed free access to tap water. Urine was collected for 24 h on ice, aliquoted and stored at −20 °C until further analysis.
(§2) Duplicate analysis of OTA in urine samples with and without enzymatic hydrolysis allowed for indirect measurement of glucuronides, whereby an increase in the concentration of OTA in the samples incubated with enzyme compared to those without enzymatic treatment reflected the hydrolyzed glucuronides. Aliquots of rat urine (125 µL) were mixed with 0.1 M sodium acetate (104 µL; pH = 5). For analysis of the concentration of OTA without enzymatic hydrolysis, an aliquot (30 µL) of this solution was removed and mixed with 7 µL acetonitrile. The remaining solution (199 µL) was incubated with β-glucuronidase (1.65 µL; <100,000 units/mL) at 37 °C for 1 h. Hydrolysis was terminated by addition of ice-cold acetonitrile (50 µL) and centrifugation (15 min., 4 °C, 20,000× g). To 98 µL supernatant, 2 µL isotopically labeled ^13C20-OTA in acetonitrile (14-day study: 5 µg/mL; 90-day study: 1 µg/mL) was added as an internal standard. For analysis, 10 µL of each sample were injected into the LC–MS system and analyzed using the method described below. A calibration curve was prepared from solutions of OTA and the isotopically labeled ^13C20-OTA internal standard in acetonitrile and subsequent dilution with urine of a control animal.
(§3) LC–MS/MS analyses were performed on an Agilent 1100 series LC coupled to an API 2000/Q-Trap mass spectrometer (Applied Biosystems/MDS Sciex, Concord, Canada). Samples were injected into the LC–MS/MS system through an Agilent 1100 series autosampler. Separations were carried out on a ReproSil-Pur C18 AQ column (2 mm × 150 mm, 5 µm; Dr. Maisch; Ammerbuch, Germany). Gradient elution of OTA-derived metabolites was carried out with water + 0.1% formic acid (solvent A) and acetonitrile (solvent B). Initially, solvent A was held isocratic for 5 min at 100%, followed by a linear gradient to 95% B in 5 min. These conditions were held for further 5 min. Within 1 min, the gradient decreased linearly to 0% B and remained at initial conditions until the end of analysis (30 min). A flow rate of 0.2 mL/min was used. For each run, 10 µL of the respective sample were injected by the autosampler.
(§4) The API 2000/Q-Trap mass spectrometer was operated with a Turbo Ion Spray source in negative ion mode with a voltage of −4000 V. Spectral data were recorded with N2 as the heater gas at 450 °C and as the collision gas (CAD = −2) in multiple reaction monitoring mode (MRM).

[2] = 14-day rat study: 24 h urinary excretion of OTA and OTA-glucuronides, LC–MS/MS with and without β-glucuronidase hydrolysis; conditions: for Urinary excretion / Urinary excretion, fraction of the administered dose: 2 mg OTA/kg bw oral, 5 d/week; for Urinary excretion, fraction of the administered dose: 24 h urine
Experimental: (§5) 14-day study: Male F344 rats (170–190 g) were purchased from Charles-River Laboratories, Sulzfeld, Germany. Animals had free access to water and standard diet (Altromin) and were kept under standard conditions (12 h day/night cycle, temperature 21–23 °C, humidity 45–55%). Rats were transferred to metabolic cages (Tecniplast Metabolic Cage—Rats Over 300 g; Tecniplast, Italy) for collection of urine 3 days prior to dosing. Animals were administered OTA dissolved in corn oil by oral gavage at 0, 0.25, 0.5, 1.0 and 2.0 mg/kg bw for 2 weeks (5 days per week). Urine was collected every 12 h on day 1 of treatment and every 24 h thereafter on ice, aliquoted and stored at −20 °C until further analysis.
as §2, §3, §4

[3] = Direct LC–MS/MS analysis of OTA metabolites in urine of OTA-treated rats; conditions: OTA up to 2 mg/kg bw, negative ionization mode
Experimental: Archived urine samples from previous repeated dose oral toxicity studies on OTA in male F344/N rats were used. The studies were performed according to national animal welfare regulations after authorization by the local authorities (Regierung von Unterfranken, AZ 621-2531.01-9/98 and AZ 54-2531.01-59/05).
as §5, §1
Urine samples were diluted with acetonitrile (2:1), vortexed and cleared via centrifugation (4 °C, 15 min., 2000× g) to precipitate proteins. Of the resulting supernatant, 10 µL were injected into the LC–MS system and analyzed using the method described below.
as §3, §4
In addition to MRM, constant neutral loss of 129 amu in the negative ion mode based on the characteristic fragmentation pattern of mercapturic acids was used to screen for N-acetyl-cysteine conjugates of OTA. Furthermore, constant neutral loss of 176 amu in positive ion mode based on the fragmentation pattern of glucuronic acid conjugates was used to screen for OTA glucuronides.

[4] = 4 weeks treatment, OTA 210 μg/kg bw per day oral, n = 1

With `CC1Cc2c(Cl)cc(C(=O)NC(Cc3ccccc3)C(=O)OC3OC(C(=O)O)C(O)C(O)C3O)c(O)c2C(=O)O1` (centres unmarked) [OTA-Glucuronide] the “Urinary excretion, fraction of the administered dose” value (“Urinary excretion, fraction” for short) ([1]; 2 weeks treatment, OTA 21 μg/kg bw per day oral) was 0.8%, the Urinary excretion ([1]; 2 weeks treatment, OTA 21 μg/kg bw per day oral, mean ± SD) was 0.10 ± 0.02 nmol/24 h and the “Urinary excretion, fraction” value ([1]; 2 weeks treatment, OTA 70 μg/kg bw per day oral) was 0.6%. For the same compound, the Urinary excretion ([1]; 2 weeks treatment, OTA 70 μg/kg bw per day oral, mean ± SD) was 0.23 ± 0.08 nmol/24 h, the “Urinary excretion, fraction” value ([1]; 2 weeks treatment, OTA 210 μg/kg bw per day oral) was 0.4% and the Urinary excretion ([1]; 2 weeks treatment, OTA 210 μg/kg bw per day oral, mean ± SD) was 0.48 ± 0.36 nmol/24 h. For the same compound, the “Urinary excretion, fraction” value ([1]; 4 weeks treatment, OTA 21 μg/kg bw per day oral) was 0.7%, the Urinary excretion ([1]; 4 weeks treatment, OTA 21 μg/kg bw per day oral, mean ± SD) was 0.08 ± 0.09 nmol/24 h and the “Urinary excretion, fraction” value ([1]; 4 weeks treatment, OTA 70 μg/kg bw per day oral) was 1.5%. For the same compound, the Urinary excretion ([1]; 4 weeks treatment, OTA 70 μg/kg bw per day oral, mean ± SD) was 0.61 ± 0.67 nmol/24 h, the “Urinary excretion, fraction” value [1, 4] was 0.2% and the Urinary excretion [1, 4] was 0.21 nmol/24 h. For the same compound, the “Urinary excretion, fraction” value ([1]; 13 weeks treatment, OTA 21 μg/kg bw per day oral) was 0.2%, the Urinary excretion ([1]; 13 weeks treatment, OTA 21 μg/kg bw per day oral, mean ± SD) was 0.03 ± 0.00 nmol/24 h and the “Urinary excretion, fraction” value ([1]; 13 weeks treatment, OTA 70 μg/kg bw per day oral) was 1.7%. For the same compound, the Urinary excretion ([1]; 13 weeks treatment, OTA 70 μg/kg bw per day oral, mean ± SD) was 0.85 ± 0.74 nmol/24 h, the “Urinary excretion, fraction” value ([1]; 13 weeks treatment, OTA 210 μg/kg bw per day oral) was 1.1% and the Urinary excretion ([1]; 13 weeks treatment, OTA 210 μg/kg bw per day oral, mean ± SD) was 1.72 ± 1.53 nmol/24 h. For the same compound, the “Relationship between OTA dose and urinary excretion (Pearson correlation)” value ([1]; OTA 0, 21, 70, 210 μg/kg bw, 2, 4 and 13 weeks) was “linear relationship”, the “Excretion in male rat urine, % of the orally administered dose” value ([1]; male rats, indirect analysis, summary statement in discussion) was “less than 2%” and the “Fraction of the administered dose excreted in urine” value ([1]; range over 90-day study, OTA 21, 70 and 210 µg/kg (5 days/week)) was 0.2 to 1.7%. For the same compound, the Urinary excretion ([2]; animal 2, day 3 of treatment) was 0.6 nmol/24 h, the “Urinary excretion, fraction” value ([2]; animal 2, day 3 of treatment) was 0.1% and the Urinary excretion ([2]; animal 2, day 5 of treatment) was 7.0 nmol/24 h. The “Urinary excretion, fraction” value ([2]; animal 2, day 5 of treatment) was 0.8%, the Urinary excretion ([2]; animal 2, day 7 of treatment) was 0.7 nmol/24 h and the “Urinary excretion, fraction” value ([2]; animal 2, day 7 of treatment) was 0.1%. The Urinary excretion ([2]; animal 2, day 9 of treatment) was 12.2 nmol/24 h, the “Urinary excretion, fraction” value ([2]; animal 2, day 9 of treatment) was 1.4% and the Urinary excretion ([2]; animal 2, day 11 of treatment) was 3.1 nmol/24 h. The “Urinary excretion, fraction” value ([2]; animal 2, day 11 of treatment) was 0.4%, the Urinary excretion ([2]; animal 2, day 13 of treatment) was 3.4 nmol/24 h and the “Urinary excretion, fraction” value ([2]; animal 2, day 13 of treatment) was 0.4%. For the same compound, the Urinary excretion ([2]; animal 3, day 3 of treatment) was 1.5 nmol/24 h, the “Urinary excretion, fraction” value ([2]; animal 3, day 3 of treatment) was 0.2% and the Urinary excretion ([2]; animal 3, day 5 of treatment) was 1.6 nmol/24 h. The “Urinary excretion, fraction” value ([2]; animal 3, day 5 of treatment) was 0.3%, the Urinary excretion ([2]; animal 3, day 7 of treatment) was 22.0 nmol/24 h and the “Urinary excretion, fraction” value ([2]; animal 3, day 7 of treatment) was 2.4%. The Urinary excretion ([2]; animal 3, day 9 of treatment) was 16.9 nmol/24 h, the “Urinary excretion, fraction” value ([2]; animal 3, day 9 of treatment) was 1.9% and the Urinary excretion ([2]; animal 3, day 11 of treatment) was 22.5 nmol/24 h. For the same compound, the “Urinary excretion, fraction” value ([2]; animal 3, day 11 of treatment) was 2.5%, the Urinary excretion ([2]; animal 3, day 13 of treatment) was 6.384 nmol/24 h and the “Urinary excretion, fraction” value ([2]; animal 3, day 13 of treatment) was 0.7%. For the same compound, the “24 h urinary excretion, % of the daily administered dose” value ([2]; range over the course of the study, OTA 2 mg/kg bw for 2 weeks (5 days/week)) was 0.1–2.5% and the “Detection in urine of OTA-treated rats by direct LC–MS/MS (MRM)” value [3] was “failed”.
